Patent publication US20230167068A1, “BENZOPYRAZOLE COMPOUND” (MEDSHINE DISCOVERY INC., priority 2019, published 2023)
Where two headings read alike, the source gives them in different places.

Experiments:
[1] = test system: MMTV promoter luciferase reporter in HeLa cell line (GR transcription activation); experiment: MMTV transcription activation activity, luciferase reporter gene screening system (MMTV_GR transcription activation experiment); type: cell-based; conditions: Homo sapiens
From the text: The promoter of mouse mammary tumor virus (MMTV) contains specific binding sites for activating GRs (GREs). To determine the activity of the compounds, a reporter gene (luciferase) was inserted after the MMTV promoter, and this construct was expressed in a stable manner in the genome of the HeLa cell line. MMTV promoter was activated by the test compounds to induce the expression of luciferase, and its activity was detected by luminescence measurement.
• [0442] 1) All the culture media were carefully aspirated, the cell layer was rinsed gently with an appropriate amount of DPBS, and then aspirated. • [0443] 2) An appropriate amount of 0.05% Typsine EDTA was added and incubated in a CO2 incubator for 3-5 minutes to digest the cells. • [0444] 3) The cells were resuspended with an appropriate amount of cell culture medium. • [0445] 4) The amount of cells required was calculated, and the cell concentration was 4×10^3 cells/well. • [0446] 5) The cell suspension was diluted with appropriate cell culture medium. • [0447] 6) Cell suspension was dispensed into a disposable sterile loading slot. • [0448] 7) Inoculated 30 µL per well into a 384-well plate. • [0449] 8) The cell plate was placed in a 37° C. 5% CO2 incubator for 18-24 hours.
Compounds were diluted with DMSO to 1 mM, 0.25 mM, 0.0625 mM, 0.015625 mM, 0.0039 mM, 0.0009765 mM, 0.000244 mM, 0.000061 mM, 0.00001526 mM and 0.0000038125 mM, then diluted 25-fold with serum culture medium treated with activated carbon, and finally 4x concentration compound experimental plate was obtained, prepared before use.
The final DMSO experimental concentration was 0.1%.
MMTV_GR transcription activation activity experiment • [0458] 1) Inoculated cells: Fresh cells were inoculated into 384 white transparent bottom experimental plates at 4×10^3 cells/30 µL/well, and incubated at 37° C. 5% CO2 incubator for 24 hours. • [0459] 2) Compound preparation: The compound plate was prepared before the experiment, and the reference compound (dexamethasone) and the test compound of 4x concentration were prepared. Finally, the experimental plate of 4x concentration compound was obtained. • [0460] 3) Added compound: 10 µL of 4x compound was transferred with Bravo and added to cell plate. Incubated for 18 hours in a 37° C. 5% CO2 incubator. • [0461] 4) 30 µL of Bright-Glo fluorescent detection reagent was transferred to the cell plate. • [0462] 5) Centrifugal incubation for 2 minutes. • [0463] 6) The fluorescence value was measured with the Envision plate reader.
Positive control: 1000 nM dexamethasone (0.1% DMSO)
Negative control: 0.1% DMSO
Test compound: Maximum concentration of 1000 nM, 4-fold dilution, 10 wells in total, repeated.
Dexamethasone: Maximum concentration of 1000 nM, 4-fold dilution, 10 wells in total, repeated.
The graphing software GraphPad Prism5 was used to create the concentration curves of the tested compounds and calculate the IC50 values.

[2] = test system: human peripheral blood mononuclear cells TNF-α; experiment: Repression of TNF-α in human peripheral blood mononuclear cells (LPS, ELISA); type: cell-based; conditions: PBMC, 3-fold diluted; for IC50: read-out: hPBMC IC50; for Emax: maximum effect value
Method: Experimental purpose: To express the anti-inflammatory activity of the test compound at the cellular level according to the level of TNF-α in human peripheral blood mononuclear cells (hPBMC).
• [0488] 1) The frozen cells were quickly thawed by continuous stirring in a 37° C. water bath. • [0489] 2) 25 mL of fresh pre-heated thawed culture medium was added to a 50 mL centrifuge tube. Then the cells were added gently, drop by drop. • [0490] 3) Cells were centrifuged at 2000 rpm for 10 min (ascending speed: 9, descending speed: 1). • [0491] 4) The supernatant was discarded and the cell particles were resuspended in 25 mL of freshly pre-heated RPMI 1640 culture medium.
• [0493] 5) After thawing and resuscitating the suspended cells, the number of cells was counted and the total number of cells required for the experiment was calculated. • [0494] 6) The cell suspension was diluted with an appropriate volume of cell culture medium. • [0495] 7) The cell suspension was poured into a sterile disposable container. • [0496] 8) 100,000 cells/(100 µL) of cell suspension was transferred to each well of a 96-well plate. • [0497] 9) The cell plates were placed in humidified air, 5% CO2 incubator, 37° C. for 2 hours.
[…] In the second step, the serum-free culture medium was diluted 125 times, and the concentration of DMSO was 0.8%. Then 16.8 µL of the compound diluted in culture medium was transferred to a 100 µL cell plate, and the concentration of DMSO was 0.114%.
After adding the compound, the cell plates were incubated in a 37° C. 5% CO2 incubator for 1 hour.
In the first step, LPS was diluted with ultrapure water to a storage concentration of 1 mg/mL. In the second step, the storage concentration of LPS was diluted to 1 µg/mL in serum-free culture medium. In the third step, serum-free culture medium was 1666.666-fold diluted. Then 16.8 µL of LPS that has been diluted with culture medium was transferred to a 116.8 µL cell plate. At this time, the final concentration of DMSO was 0.1%. After adding LPS, the cell plate was put into a 37° C., 5% CO2 incubator and incubated for 18 hours.
• [0505] 1. The TNF-α antibody was diluted to 1× in the coating solution, and then 100 µL per well was added to a 96-well high-binding performance plate, and the plate was sealed with a membrane and placed at 4° C. for 18 hours. • [0506] 2. 2000 mL of wash buffer was prepared to 1x for later use.
• [0508] 3. After the plate was coated overnight, the coating solution was poured out and washed 3 times with 300 µL of washing buffer per well. • [0509] 4. After the plate was washed, 200 µL of sealing buffer was added to each well, and the plate was sealed with membrane. Incubated for one hour in a 25° C. incubator. • [0510] 5. The cell plates incubated for 18 hours were placed in a centrifuge for centrifugation, temperature: 25° C., speed: 2000 rpm, time: 10 min, ascending speed: 9, descending speed: 1. After centrifugation, 100 µL of cell supernatant from each well was transferred to a 3599 cell plate, and then placed in a 4° C. refrigerator for later use. • [0511] 6. The cell supernatant was diluted 40 times with sealing buffer and placed in a 4° C. refrigerator for later use, and the standard was also placed in a 4° C. refrigerator for later use. • [0512] 7. After the sealing was completed, the sealing solution was poured out and washed three times with 300 µL of washing buffer per well. • [0513] 8. The diluted cell supernatant samples and standards were added to the ELISA plate, and the plate was sealed with membrane. Then incubated for 2 hours in a 25° C. incubator. • [0514] 9. The liquid in the plate was poured out and washed 5 times with 300 µL of washing buffer per well. • [0515] 10. Antibodies were prepared and 100 µL was added to each well and the plate was sealed with sealing membrane. Then incubated for one hour in a 25° C. incubator. • [0516] 11. The liquid in the plate was poured out and washed 7 times with 300 µL of washing buffer per well. • [0517] 12. […]

CYP3A4 = molecular target: T1, CYP3A4 (Homo sapiens, UniProt P08684); experiment: Human liver microsomal CYP repression experiment; type: in vitro ADME; conditions: for repression on CYP3A4 (in words): conclusion on Table 3; for IC50: mixed human liver microsomes, 5-in-1 probe substrate
T1 construct: incubation system containing human liver microsomes, probe substrates, and co-factors; tissue Corning Inc. or other suppliers; host or cells: mixed (pooled) human liver microsomes
Method: The purpose of the research project was to evaluate the repression of the test sample on human liver microsomal cytochrome P450 isoenzyme (CYP3A4) using a 5-in-1 probe substrate of CYP isoenzyme.
Mixed human liver microsomes (HLM) were purchased from Corning Inc. (Steuben, New York, USA) or other suppliers and stored at temperatures below -70° C. before use.
The diluted series concentration of the test sample was added to the incubation system containing human liver microsomes, probe substrates, and co-factors of the circulating system, and the control without the test sample but with solvent was used as the enzyme activity control (100%). The concentration of metabolites produced by the probe substrate in the sample was determined by liquid chromatography-tandem mass spectrometry (LC-MS/MS). Non-linear regression analysis of the mean percent activity of the test sample versus concentration was performed using SigmaPlot (V. 11). The IC50 values were calculated by a three- or four-parameter inverse logarithmic equation.

[3] = In vivo pharmacokinetic properties study in male SD rats; conditions: rat, plasma, iv 2 mg/kg
Method: Experimental purpose: The purpose of this study was to determine the pharmacokinetic parameters of compounds in male SD rats.
Experimental methods: In this project, two male SD rats were intravenously administered with a dose of 2 mg/kg and a concentration of 0.4 mg/mL. Plasma samples were collected at 0 h (before administration) and 0.0833, 0.25, 0.5, 1, 2, 4, 6, 8, 24 h after administration. Then the collected samples were analyzed by LC-MS/MS and the data were collected. The collected analytical data were used to calculate the relevant pharmacokinetic parameters using Phoenix WinNonlin 6.3 software.

T1 sequence (P08684 whole entry): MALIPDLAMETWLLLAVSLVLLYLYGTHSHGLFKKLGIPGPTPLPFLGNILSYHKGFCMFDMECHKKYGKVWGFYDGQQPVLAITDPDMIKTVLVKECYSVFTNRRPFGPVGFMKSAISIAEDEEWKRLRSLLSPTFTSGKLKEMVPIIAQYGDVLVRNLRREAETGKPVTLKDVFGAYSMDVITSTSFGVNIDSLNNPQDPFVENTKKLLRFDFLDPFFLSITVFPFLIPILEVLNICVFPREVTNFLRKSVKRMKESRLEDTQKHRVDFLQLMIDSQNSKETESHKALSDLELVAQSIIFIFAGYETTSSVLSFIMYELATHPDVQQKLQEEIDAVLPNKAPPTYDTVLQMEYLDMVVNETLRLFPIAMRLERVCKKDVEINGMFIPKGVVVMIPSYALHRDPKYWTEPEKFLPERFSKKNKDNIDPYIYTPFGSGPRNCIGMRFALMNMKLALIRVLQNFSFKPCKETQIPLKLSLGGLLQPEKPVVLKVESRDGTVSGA

Row | IC50 (CYP3A4) | IC50 ([2]; absolute IC50, test Top concentration 500 nM, 8 concentration (**)) | clearance [3] | half-life ([3]; read-out: T½ (converted)) | Vd ([3]; read-out: Vdss) | Structure (SMILES) | Emax ([1]; HeLa, maximum effect value, positive control 1000 nM dexamethasone, read-out: TA (MMTV transcription activation activity) Effect) | EC50 ([1]; absolute EC50, HeLa MMTV-luciferase cells, 18 h, max concentration 1000 nM, read-out: TA (MMTV transcription activation activity) EC50) | IC50 ([2]; absolute IC50, test Top concentration 1000 nM, 8 concentration (*)) | Emax ([2]; test Top concentration 1000 nM, 8 concentration (*)) | repression on CYP3A4 (in words) (CYP3A4) | Emax ([2]; test Top concentration 500 nM, 8 concentration (**))
1 | – | – | – | – | – | C[C@H](NC(=O)C(C)(F)F)[C@H](Oc1ccc2c(cnn2-c2ccc3nncn3c2)c1)c1ccccc1 [WX022] | 101% | 1.59 nM | 2.42 nM | 90% | – | –
2 | 15700 nM | – | – | – | – | C[C@H](NC(=O)C(C)(F)F)[C@H](Oc1ccc2c(cnn2-c2cn(C)nn2)c1)c1ccccc1 [WX053] | – | – | – | – | significantly improve the repression of CYP3A4 | –
3 | 2950 nM | 57.4 nM | 4.25 mL/min/kg | 1.99 h | 0.56 L/kg | CC(C)[C@H](NC(=O)C(C)(F)F)[C@H](Oc1ccc2c(cnn2-c2ccc(=O)n(C)c2)c1)c1ccccc1 [AZD9567, reference compound] | – | – | – | – | moderate repression on CYP3A4 | 54.6%
